Data reported in patent publication US11998539B2, “Substituted aminoquinolones as DGKalpha inhibitors for immune activation” (Bayer Aktiengesellschaft, priority 2019, dated 2024).

Target: DGKα (Homo sapiens (Human), UniProt P23743)
Test: Human DGKα kinase activity inhibition assay (ADP-Glo)
Assay type: biochemical
Details: recombinant full-length human DGKα, 55 μM ATP, 7 μM 1,2-dioleoyl-sn-glycerol, read-out: IC50 values of examples in in vitro human DGKa kinase activity inhibition assays
In short: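 Activity was measured as ADP production, detected by luciferase luminescence after removal of unused ATP. The enzyme was baculovirus-expressed full-length human DGKα with a C-terminal FLAG tag. The substrate was 1,2-dioleoyl-sn-glycerol in detergent micelles, and compounds came from 100× DMSO solutions.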

DGKα, sequence (P23743 other isoform, or with tags, fused parts or gaps): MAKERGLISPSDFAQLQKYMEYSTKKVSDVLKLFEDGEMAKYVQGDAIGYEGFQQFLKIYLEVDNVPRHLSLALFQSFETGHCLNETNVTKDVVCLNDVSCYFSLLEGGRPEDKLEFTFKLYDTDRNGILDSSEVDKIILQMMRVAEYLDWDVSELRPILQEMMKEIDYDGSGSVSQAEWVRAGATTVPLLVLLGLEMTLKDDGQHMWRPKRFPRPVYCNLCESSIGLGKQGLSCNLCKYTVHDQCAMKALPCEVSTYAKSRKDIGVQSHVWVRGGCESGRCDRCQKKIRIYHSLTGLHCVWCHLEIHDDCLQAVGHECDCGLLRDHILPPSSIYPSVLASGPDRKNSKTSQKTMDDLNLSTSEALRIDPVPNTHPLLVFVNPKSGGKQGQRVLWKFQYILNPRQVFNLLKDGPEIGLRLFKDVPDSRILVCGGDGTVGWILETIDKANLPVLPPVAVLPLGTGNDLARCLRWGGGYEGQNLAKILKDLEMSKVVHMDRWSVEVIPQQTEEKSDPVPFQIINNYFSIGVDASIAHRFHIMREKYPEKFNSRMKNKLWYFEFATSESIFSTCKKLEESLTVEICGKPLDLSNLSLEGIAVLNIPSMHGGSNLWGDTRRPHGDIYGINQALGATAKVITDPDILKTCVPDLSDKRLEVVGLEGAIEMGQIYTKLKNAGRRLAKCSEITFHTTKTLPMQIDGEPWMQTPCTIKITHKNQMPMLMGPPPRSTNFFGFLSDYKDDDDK

Row | Structure (SMILES) | IC50
1 | Cc1ccc2oc(C3CCN(c4c(C(N)=O)c(=O)n(C)c5cc(C(F)(F)F)ccc45)CC3)nc2c1 [Example 307, 1-methyl-4-[4-(5-methyl-1,3-benzoxazol-2-yl)piperidin-1-yl]-2-oxo-7-(trifluoromethyl)-1,2-dihydroquinoline-3-carboxamide] | 5.7 nM
2 | Cn1c(=O)c(C(N)=O)c(N2CCC(c3nc4ccccc4o3)CC2)c2ccc(C(F)(F)F)cc21 [Example 308, 4-[4-(1,3-benzoxazol-2-yl)piperidin-1-yl]-1-methyl-2-oxo-7-(trifluoromethyl)-1,2-dihydroquinoline-3-carboxamide] | 6.4 nM
3 | Cn1c(=O)c(C(N)=O)c(N2CCC(c3nc4ccccc4o3)CC2)c2cccc(Cl)c21 [Example 309, 4-[4-(1,3-benzoxazol-2-yl)piperidin-1-yl]-8-chloro-1-methyl-2-oxo-1,2-dihydroquinoline-3-carboxamide] | 101 nM
4 | Cn1c(=O)c(C(N)=O)c(N2CCC(C)(c3nc4ccccc4o3)CC2)c2cccc(Cl)c21 [Example 310, 4-[4-(1,3-benzoxazol-2-yl)-4-methylpiperidin-1-yl]-8-chloro-1-methyl-2-oxo-1,2-dihydroquinoline-3-carboxamide] | 34 nM
5 | Cc1ccc2c(N3CCC(C)(c4nc5ccccc5o4)CC3)c(C(N)=O)c(=O)n(C)c2c1 [Example 311, 4-[4-(1,3-benzoxazol-2-yl)-4-methylpiperidin-1-yl]-1,7-dimethyl-2-oxo-1,2-dihydroquinoline-3-carboxamide] | 1.2 nM
6 | Cc1ccc2oc(C3(C)CCN(c4c(C(N)=O)c(=O)n(C)c5cc(C)ccc45)CC3)nc2c1 [Example 312, 1,7-dimethyl-4-[4-methyl-4-(5-methyl-1,3-benzoxazol-2-yl)piperidin-1-yl]-2-oxo-1,2-dihydroquinoline-3-carboxamide] | 0.7 nM
7 | Cc1ccc2oc(C3CCN(c4c(C(N)=O)c(=O)n(C)c5cc(C)ccc45)CC3)nc2c1 [Example 313, 1,7-dimethyl-4-[4-(5-methyl-1,3-benzoxazol-2-yl)piperidin-1-yl]-2-oxo-1,2-dihydroquinoline-3-carboxamide] | 1.5 nM
8 | Cc1ccc2c(N3CCC(c4nc5ccccc5o4)CC3)c(C(N)=O)c(=O)n(C)c2c1 [Example 314, 4-[4-(1,3-benzoxazol-2-yl)piperidin-1-yl]-1,7-dimethyl-2-oxo-1,2-dihydroquinoline-3-carboxamide] | 1.7 nM
9 | COCCc1cccc2oc(C3CCN(c4c(C(N)=O)c(=O)n(C)c5ccccc45)CC3)nc12 [Example 315, 4-{4-[4-(2-methoxyethyl)-1,3-benzoxazol-2-yl]piperidin-1-yl}-1-methyl-2-oxo-1,2-dihydroquinoline-3-carboxamide] | 46 nM
10 | COCCc1ccc2nc(C3CCN(c4c(C(N)=O)c(=O)n(C)c5ccccc45)CC3)oc2c1 [Example 317, 4-{4-[6-(2-methoxyethyl)-1,3-benzoxazol-2-yl]piperidin-1-yl}-1-methyl-2-oxo-1,2-dihydroquinoline-3-carboxamide] | 17 nM
11 | Cn1c(=O)c(C(N)=O)c(N2CCC(c3nc4ccccc4o3)CC2)c2ccc(N3CCCC3=O)cc21 [Example 318, 4-[4-(1,3-benzoxazol-2-yl)piperidin-1-yl]-1-methyl-2-oxo-7-(2-oxopyrrolidin-1-yl)-1,2-dihydroquinoline-3-carboxamide] | 48 nM
12 | Cc1ccc2oc(C3CCN(c4c(C(N)=O)c(=O)n(C)c5c(Cl)cccc45)CC3)nc2c1 [Example 319, 8-chloro-1-methyl-4-[4-(5-methyl-1,3-benzoxazol-2-yl)piperidin-1-yl]-2-oxo-1,2-dihydroquinoline-3-carboxamide] | 74 nM
13 | Cn1c(=O)c(C#N)c(N2CCC(c3cnc4ccccc4n3)CC2)c2ccccc21 [Example 321, 1-methyl-2-oxo-4-[4-(quinoxalin-2-yl)piperidin-1-yl]-1,2-dihydroquinoline-3-carbonitrile] | 75 nM
14 | Cn1c(=O)c(C#N)c(N2CCC(c3cc[nH]n3)CC2)c2ccccc21 [Example 322, 1-methyl-2-oxo-4-[4-(1H-pyrazol-3-yl)piperidin-1-yl]-1,2-dihydroquinoline-3-carbonitrile] | 239 nM
15 | Cn1cc(C2CCN(c3c(C#N)c(=O)n(C)c4ccccc34)CC2)cn1 [Example 323, 1-methyl-4-[4-(1-methyl-1H-pyrazol-4-yl)piperidin-1-yl]-2-oxo-1,2-dihydroquinoline-3-carbonitrile] | 326 nM
16 | COc1ccc(C2CCN(c3c(C#N)c(=O)n(C)c4ccccc34)CC2)cc1OC [Example 324, 4-[4-(3,4-dimethoxyphenyl)piperidin-1-yl]-1-methyl-2-oxo-1,2-dihydroquinoline-3-carbonitrile] | 14 nM
17 | Cn1c(=O)c(C#N)c(N2CCC(c3cccc(Cl)c3)CC2)c2ccccc21 [Example 325, 4-[4-(3-chlorophenyl)piperidin-1-yl]-1-methyl-2-oxo-1,2-dihydroquinoline-3-carbonitrile] | 26 nM
18 | Cc1ccc2oc([C@H]3CCN(c4c(C#N)c(=O)n(C)c5ccccc45)[C@@H](C)C3)nc2c1 [Example 326, 1-methyl-4-[(2S,4S)-2-methyl-4-(5-methyl-1,3-benzoxazol-2-yl)-1-piperidyl]-2-oxo-quinoline-3-carbonitrile] | 34 nM

Row | Structure (SMILES) | IC50
19 | Cn1c(=O)c(C#N)c(N2CCC(c3cccc(C#N)c3)CC2)c2ccccc21 [Example 327, 4-[4-(3-cyanophenyl)piperidin-1-yl]-1-methyl-2-oxo-1,2-dihydroquinoline-3-carbonitrile] | 85 nM
20 | Cn1c(=O)c(C#N)c(N2CCC[C@H](c3ccccc3)CC2)c2cccc(F)c21 [Example 328, 8-fluoro-1-methyl-2-oxo-4-[(4S)-4-phenylazepan-1-yl]-1,2-dihydroquinoline-3-carbonitrile] | 144 nM
21 | Cn1c(=O)c(C#N)c(N2CCC(c3ccc(C(N)=O)cc3)CC2)c2ccccc21 [Example 330, 4-[1-(3-cyano-1-methyl-2-oxo-1,2-dihydroquinolin-4-yl)piperidin-4-yl]benzamide] | 217 nM
22 | COc1ccccc1C1(O)CCN(c2c(C#N)c(=O)n(C)c3ccccc23)CC1 [Example 331, 4-[4-hydroxy-4-(2-methoxyphenyl)piperidin-1-yl]-1-methyl-2-oxo-1,2-dihydroquinoline-3-carbonitrile] | 861 nM
23 | CCn1c(=O)c(C#N)c(N2CCC(c3nc4ccccc4o3)CC2)c2ccccc21 [Example 332, 4-[4-(1,3-benzoxazol-2-yl)piperidin-1-yl]-1-ethyl-2-oxo-1,2-dihydroquinoline-3-carbonitrile] | 17 nM
24 | CCn1c(=O)c(C#N)c(N2CCC(c3ccc(Cl)cc3)CC2)c2ccccc21 [Example 333, 4-[4-(4-chlorophenyl)piperidin-1-yl]-1-ethyl-2-oxo-1,2-dihydroquinoline-3-carbonitrile] | 172 nM
25 | Cn1c(=O)c(C#N)c(N2CCC(c3nc4cc(N5CCCC5=O)ccc4o3)CC2)c2ccccc21 [Example 334, 1-methyl-2-oxo-4-{4-[5-(2-oxopyrrolidin-1-yl)-1,3-benzoxazol-2-yl]piperidin-1-yl}-1,2-dihydroquinoline-3-carbonitrile] | 100 nM
26 | CC(=O)c1ccc(C2(C)CCN(c3c(C#N)c(=O)n(C)c4ccccc34)CC2)cc1 [Example 335, 4-[4-(4-acetylphenyl)-4-methylpiperidin-1-yl]-1-methyl-2-oxo-1,2-dihydroquinoline-3-carbonitrile] | 2.3 nM
27 | COC1(c2cccc(Cl)c2)CCN(c2c(C#N)c(=O)n(C)c3ccccc23)CC1 [Example 336, 4-[4-(3-chlorophenyl)-4-methoxypiperidin-1-yl]-1-methyl-2-oxo-1,2-dihydroquinoline-3-carbonitrile] | 80 nM
28 | Cc1ccc2oc(C3CCN(c4c(C#N)c(=O)n(C)c5ccc(P(C)(C)=O)cc45)CC3)nc2c1 [Example 338, 6-(dimethylphosphoryl)-1-methyl-4-[4-(5-methyl-1,3-benzoxazol-2-yl)piperidin-1-yl]-2-oxo-1,2-dihydroquinoline-3-carbonitrile] | 86 nM
29 | Cc1ccc2oc(C3CCN(c4c(C#N)c(=O)n(C)c5ccc(S(C)(=O)=O)cc45)CC3)nc2c1 [Example 339, 6-(methanesulfonyl)-1-methyl-4-[4-(5-methyl-1,3-benzoxazol-2-yl)piperidin-1-yl]-2-oxo-1,2-dihydroquinoline-3-carbonitrile] | 67 nM
30 | Cn1c(=O)c(C#N)c(N2CCC(O)(c3cc4ccccc4s3)CC2)c2ccccc21 [Example 340, 4-[4-(1-benzothiophen-2-yl)-4-hydroxypiperidin-1-yl]-1-methyl-2-oxo-1,2-dihydroquinoline-3-carbonitrile] | 72 nM
31 | COC1(c2cc3ccccc3s2)CCN(c2c(C#N)c(=O)n(C)c3ccccc23)CC1 [Example 341, 4-[4-(1-benzothiophen-2-yl)-4-methoxypiperidin-1-yl]-1-methyl-2-oxo-1,2-dihydroquinoline-3-carbonitrile] | 3.3 nM
32 | Cn1c(=O)c(C#N)c(N2CCC(C)(c3cc4ccccc4s3)CC2)c2ccccc21 [Example 342, 4-[4-(1-benzothiophen-2-yl)-4-methylpiperidin-1-yl]-1-methyl-2-oxo-1,2-dihydroquinoline-3-carbonitrile] | 2.9 nM
33 | COc1ccc2cc(C3CCN(c4c(C#N)c(=O)n(C)c5ccccc45)CC3)ccc2c1 [Example 343, 4-[4-(6-methoxynaphthalen-2-yl)piperidin-1-yl]-1-methyl-2-oxo-1,2-dihydroquinoline-3-carbonitrile] | 16 nM
34 | Cc1cc(C#N)c2cc(C3CCN(c4c(C#N)c(=O)n(C)c5ccccc45)CC3)ccc2n1 [Example 344, 6-[1-(3-cyano-1-methyl-2-oxo-1,2-dihydroquinolin-4-yl)piperidin-4-yl]-2-methylquinoline-4-carbonitrile] | 489 nM
35 | Cc1nc2cc(C3CCN(c4c(C#N)c(=O)n(C)c5ccccc45)CC3)ccc2o1 [Example 345, 1-methyl-4-[4-(2-methyl-1,3-benzoxazol-5-yl)piperidin-1-yl]-2-oxo-1,2-dihydroquinoline-3-carbonitrile] | 38 nM
